# Key:
# HepG2 cells = experiment: Transfection efficiency of HepG2 cells in vitro (GpLuc mRNA, luminescence of supernatant); assay type: cell-based, human; conditions: for effect on transfection efficiency (in words): added to polymer PB83, 24 h post transfection, compared to polymer alone
# Protocol: This example describes the evaluation of the effect of different polymer-lipid(oid) formulations (as described under Example ▪1) on transfection efficiency on HepG2 cells (human liver carcinoma cell line). As a read-out for transfection efficiency, GpLuc mRNA (SEQ ID NO: 14) was used as a cargo. Successful transfection with the cargo leads to the translation of the luciferase protein and to a secretion of Gp luciferase protein into the cell culture supernatant.
# A volume of 0.2 mL HepG2 cells (10.000 cells) were seeded in a 96 well tissue culture plate. After removing the medium from each well, 100 μL RPMI 1640 medium (with 1% Penicillin and 1% Streptomycin, 1% L-Glutamin) was added to each well. Afterwards, HepG2 cells were transfected with 100 μL transfection mix (in triplicates) of the above described polymer-lipid(oid) mRNA complexes and respective controls (in triplicates), and cells were incubated at 37° C. and 5% CO2 for 90 minutes. After incubation, 150 μL medium was exchanged with 150 μL fresh RPMI 1640 medium supplemented with 10% fetal calf serum. Twenty-four hours post transfection, 10 μL of supernatant of each well was extracted and used for further luminescence analysis (see below).
# A volume of 10 μL supernatant was transferred to a 96 well plate for GpLuc measurement. Then, coelenterazine working solution (100 μM) was prepared (1 mL coelenterazine stock solution (4.72 mM in EtOH) in 49 mL phosphate buffered saline supplemented with 5 mM NaCl, pH 7.2). A volume of 100 μL coelenterazine working solution was used as a substrate for GpLuc and measured after 5 seconds in a commercially available microplate reader.
# Sol8 muscle cells = experiment: Transfection efficiency of differentiated Sol8 muscle cells in vitro (GpLuc mRNA); assay type: cell-based, mouse; conditions: added to polymer PB83, low- and high-charge ratio complexes, 24 h post transfection
# From the text: The purpose of this example is to assess the effect of lipid additives such as permanently cationic lipids or lipidoids on transfection/expression efficiency in Sol8 cells. […] Sol8 is a myogenic cell line isolated by Daubas et al. from primary cultures of soleus muscle taken from the leg of a normal C3H mouse. As a read-out for transfection efficiency, GpLuc mRNA (SEQ ID NO: 14) was used as the cargo. A successful transfection with the cargo leads to the translation of the luciferase protein and to a secretion of Gp luciferase protein into the cell culture supernatant. For further details on the GpLuc mRNA cargo see Example 1.
# For a subset on hydrogel, a volume of 0.2 mL Sol8 cells (20.000 cells) were seeded in 96 well glass bottom plates (Softwell Hydrogel coated with collagen (elasticity E=12 kPa)) on day 1. For another subset without hydrogel, a volume of 0.2 mL with 10.000 Sol8 cells per well were seeded in a 96 well glass bottom plates.
# After removing the medium from each well, 100 μL DMEM medium (with 2% horse serum) was added to each well. Afterwards, on day 2, Sol8 cells were transfected with 100 μL transfection mix of polymer-lipid(oid) complexes (in triplicates without serum) and respective controls (also in triplicates), and cells were incubated at 37° C. and 5% CO2 for 120 minutes (non-hydrogel subset) or respectively 90 minutes (hydrogel subset). After incubation, 150 μL medium was exchanged with 150 μL fresh DMEM medium supplemented with 10% fetal calf serum.
# Twenty-four hours post transfection, i.e. on day 3, 10 μL of supernatant of each well was extracted and used for quantification of protein expression (measurement of GpLuc) via luminescence analysis as described above.
# [1] = tested on: hemagglutinin (HA) protein of influenza A virus (A/Netherlands/602/2009 (H1N1)); experiment: Hemagglutination inhibition assay after intramuscular vaccination with HA-mRNA and 3-C12-OH (second Example 7); assay type: in vivo; conditions: Balb/c mice, 10 μg HA-mRNA R2564 with 3-C12-OH, i.m.; after prime and boost vaccination
# [2] = tested on: hemagglutinin (HA) protein of influenza A virus (A/Netherlands/602/2009 (H1N1)); assay type: in vivo; conditions: Balb/c mice, 10 μg HA-mRNA with 3-C12-OH i.m.; splenocytes 14 days after boost
# [3] = tested on: hemagglutinin (HA) protein of influenza A virus (A/Netherlands/602/2009 (H1N1)); experiment: ELISA of influenza specific IgG1 and IgG2a antibodies in sera of vaccinated mice; assay type: in vivo; conditions: Balb/c mice, 10 μg HA-mRNA with 3-C12-OH i.m.; 21 days after prime and 14 days after boost
Compound,effect on transfection efficiency (in words) (HepG2 cells),effect on transfection efficiency / expression level (in words) (Sol8 muscle cells),"increase in transfection efficiency compared to transfections with polymer alone (HepG2 cells; combination with polymer PB83, high-charge complexes N/P 2, N/P 4, N/P 6, 24 h post transfection)",antibody titers against the HA protein compared to HA-mRNA (R2564) alone [1],IFNy production compared to non-lipid-formulated mRNA [2],"functional antibody titers, IgG1 subtype, compared to mRNA without lipid [3]","functional antibody titers, IgG2a subtype, compared to mRNA without lipid [3]"
CCCCCCCCCCC(O)C[N+](C)(C)CCN(CC[N+](C)(C)CC(O)CCCCCCCCCC)CC[N+](C)(C)CC(O)CCCCCCCCCC (centres unmarked) [3-C12-OH-cat],profound increase,,,,,,
"CCCCCCCC/C=C\CCCCCCCC(=O)OCC(C[N+](C)(C)C)OC(=O)CCCCCCC/C=C\CCCCCCCC (centres unmarked) [DOTAP, 1,2-dioleoyl-3-trimethylammonium-propane, reference compound]",,effective,up to 3 log units,,,,
CCCCCCCCCCC(O)CNCCN(CCNCC(O)CCCCCCCCCC)CCNCC(O)CCCCCCCCCC (centres unmarked) [3-C12-OH],profound increase,profound increase,,significantly higher,significant increased,significantly higher,significantly higher
CCCCCCCCCCCCNCCN(CCNCCCCCCCCCCCC)CCNCCCCCCCCCCCC [3-C12],profound increase,profound increase,,,,,

# Source: patent US20190336608A1, “CATIONIC CARRIERS FOR NUCLEIC ACID DELIVERY” (priority 2016, published 2019)
